Reference: paper PMC5799266, “ComX-Induced Exoproteases Degrade ComX in Bacillus subtilis PS-216” (Frontiers in Microbiology, 2018)
Where no end group is shown, it is not given here.

Assays:
[1] = system: exoproteases in B. subtilis PS-216 floating biofilm spent media; experiment: Proteolytic activity of harvested floating biofilm spent media with EDTA or subtilisin added after harvest (casein-gelatin plates); format: biochemical, Bacillus subtilis; details: EDTA 1 mM added to wt floating biofilm spent medium, 16 h at 37°C
Description: To prepare casein gelatin agar plates 1% (w/v) casein sodium salt from bovine milk (Sigma–Aldrich, United States) and 1% (w/v) gelatin from porcine skin (Sigma–Aldrich, United States) were thoroughly dissolved in 0.02 M NaOH and the pH was equilibrated to 7 ± 0.2 as described by [Montville (1983)]. […] Finally, 1.5% (w/v) of agar was added to the casein gelatin medium. The casein gelatin medium was autoclaved at 110°C. 40 ml of the medium was poured into Petri dishes with 9 cm diameter. Wells (6 mm diameter) were cut into the casein gelatin agar using an agar punch cutter.
Proteolytic activity was determined in B. subtilis spent medium at different time points. The spent medium below the biofilm was centrifuged for 5 min at 8000 g to remove remaining planktonic cells and sterilized through filters with 0.2 μm pores. Spent medium was diluted in 10 mM sodium acetate buffer with 5 mM calcium acetate (pH 7.5). If EDTA was added to experimental samples, spent medium was diluted in PBS buffer (10 mM sodium phosphate dibasic, 1 mM potassium phosphate monobasic, 137 mM NaCl, and 2.7 mM KCl pH 7). The diluted spent medium (100 μl) was dispensed into the wells punched into the casein gelatin agar. The plates were incubated for 16 h at 37°C when the proteolytic zones were measured. […]

[2] = system: exoproteases in B. subtilis PS-216 floating biofilm spent media; experiment: ComX biological activity decay in floating biofilm spent media (biosensor BM1456, PsrfAA-yfp); format: in vitro ADME, Bacillus subtilis; details: for ComX biological activity decay: T0 vs 24 h at 37°C, three biological replicates
Description: (§1) The ComX biological activity was quantified in spent media of various B. subtilis strains harvested after 36 and 48 h of static growth, using biosensor strains: B. subtilis BM1456 and BM1400. […] The BM1400 strain only served to determine background fluorescence, since it carries no fluorescent marker. […] The BM1456 biosenor responds to ComX in the spent medium by inducing the PsrfAA-yfp reporter ([Oslizlo et al., 2014]). Since the induction of PsrfAA is proportional to the quantity of ComX ([Ansaldi et al., 2002]) we used this assay to estimate the quantity of biologically active ComX in the spent media of various pellicles.
(§2) Both biosensor strains were grown in 5 ml of CM medium supplemented with 1% (v/v) of filtered spent media of selected strains for 6 h at 37°C with shaking (200 rpm). After 6 h of incubation 200 μl aliquots were dispensed in a sterile 96-well black transparent bottom microtiter plate. The PsrfAA-yfp expression was quantified by YFP (yellow fluorescent protein) fluorescence intensity. YFP was excited at 510 nm and emissions were measured at 530 nm. The gain was set to 100. Each PsrfAA-yfp reading was normalized to OD650. The normalized autofluorescence background of BM1400 grown in the same experimental conditions was subtracted. Additionally, we subtracted the PsrfAA-yfp expression of cells exposed to ΔcomQ spent medium (lacks ComX), to account for ComX independent YFP expression.
ComX biological activity was determined in the spent media immediately after harvest (T0) and after a 24 h (T24) incubation at 37°C. We reasoned that if exoproteases in the spent medium degrade ComX the ComX biological activity at T0 will be greater than at T24. To calculate the ComX biological activity decay we used the following equation:
ComXbiologicalactivitydecay[%]= ComXbiologicalactivity(To)−ComXbiologicalactivity(T24)/ComXbiologicalactivity(To)*100
The same approach was used to determine ComX biological activity decay in the spent media supplemented with subtilisin (0.1 mg/ml) or metalloprotease inhibitor EDTA (1 mM) after harvesting or to estimate the effect of commercially available subtilisin on ComX heterologously produced in E. coli ED367.

[3] = system: exoprotease production of B. subtilis PS-216 ΔcomQ floating biofilms; experiment: Proteolytic activity in spent media of floating biofilms grown with ComX (casein-gelatin plates); format: cell-based, Bacillus subtilis; details: ΔcomQ mutant, 24 h floating biofilm in MSgg + 20% (v/v) ED367 M9 spent medium with ComX, 12-well plates, 37°C; casein-gelatin plate zones; three biological replicates
Description: (§3) To harvest pellicle spent media 1% (v/v) of B. subtilis spores were inoculated in 4 ml of MSgg medium ([Branda et al., 2001]), in some cases complemented with 20% (v/v) spent M9 minimal medium and incubated in sterile 12-well microtiter plates in static conditions at 37°C.
To prepare casein gelatin agar plates 1% (w/v) casein sodium salt from bovine milk (Sigma–Aldrich, United States) and 1% (w/v) gelatin from porcine skin (Sigma–Aldrich, United States) were thoroughly dissolved in 0.02 M NaOH and the pH was equilibrated to 7 ± 0.2 as described by [Montville (1983)]. Wherever, the proteolytic inhibition by ethylenediaminetetraacetic acid (EDTA) was tested, EDTA was added to the casein gelatin medium in 1 mM final concentration. Finally, 1.5% (w/v) of agar was added to the casein gelatin medium. The casein gelatin medium was autoclaved at 110°C. 40 ml of the medium was poured into Petri dishes with 9 cm diameter. Wells (6 mm diameter) were cut into the casein gelatin agar using an agar punch cutter.
Proteolytic activity was determined in B. subtilis spent medium at different time points. The spent medium below the biofilm was centrifuged for 5 min at 8000 g to remove remaining planktonic cells and sterilized through filters with 0.2 μm pores. […] The plates were incubated for 16 h at 37°C when the proteolytic zones were measured. […]

subtilisin = experiment: ComX biological activity decay in E. coli ED367 M9 spent medium with subtilisin (biosensor BM1456); format: in vitro ADME; details: E. coli ED367 M9 spent medium with heterologous ComX, subtilisin 0.1 mg/ml, 24 h at 37°C, vs subtilisin untreated control, three biological replicates
Description: as §1
as §2, with “Additionally, we subtracted the PsrfAA-yfp expression of cells exposed to ΔcomQ spent medium (lacks ComX), to account for ComX independent YFP expression.” left out
ComX biological activity was determined in the spent media immediately after harvest (T0) and after a 24 h (T24) incubation at 37°C. […]

[4] = system: PaprE-gfp expression in B. subtilis PS-216 mutants; experiment: PaprE-gfp expression during formation of floating biofilm, complementation with ComX; format: cell-based, Bacillus subtilis
Description: To measure gene expression in floating biofilms (pellicles) a spore suspension 1% (v/v) was inoculated into the liquid MSgg medium. In some experiments the MSgg medium was supplemented with 20% (v/v) of the spent medium containing ComX, which was heterologously produced by E. coli ED367 ([Ansaldi et al., 2002]). The spent M9 medium of E. coli ED367 that was not induced by IPTG was used as a negative control.
Briefly, 200 μl aliquots of inoculated MSgg medium, sometimes supplemented with M9 spent medium were dispensed in a sterile 96-well black transparent bottom microtiter plate in four technical replicates. The lid was sealed with micropore tape and the space between wells was filled with sterile distilled water to minimize the effect of medium evaporation. The microtiter plate was incubated in the Cytation 3 imaging reader (BioTek, United States) at 37°C without shaking. Optical density at 650 nm and fluorescence intensity were measured in half hour intervals for up to 60 h. Fluorescence intensity of GFP (green fluorescent protein) was used to monitor PaprE-gfp expression with excitation at 480 nm and emission at 510 nm. The gain was set on 50. In a parallel experimental setup the same strains without the fluorescent marker were always cultured. To calculate the final expression the autofluorescence of unmarked strains was deducted from the fluorescence of the marked strains. Fluorescence intensity was normalized per OD650 of fluorescently labeled strains at each time point.

[5] = system: B. subtilis PS-216 ΔcomQ floating biofilm; experiment: Floating biofilm morphology after addition of ComX; format: cell-based, Bacillus subtilis; details: ΔcomQ mutant at 24 h, MSgg + 20% (v/v) ED367 M9 spent medium with ComX
Description: as §3

O=C(O)CN(CCN(CC(=O)O)CC(=O)O)CC(=O)O [EDTA, ethylenediaminetetraacetic acid]
effect on proteolytic activity of spent medium [1]: decreases

ComX: auto-inducing signaling peptide of B. subtilis ComQXPA system, modified by isoprenyl transferase ComQ; native in spent media or heterologously produced by E. coli ED367 (ADPITRQWGD; also: isoprenylated by ComQ, site not given here; UniProt P45453 46-55, looked up)
ComX biological activity decay, change with subtilisin ([2]; comP::cat or degQ::tet spent media + subtilisin 0.1 mg/ml added after harvest vs without, 24 h at 37°C, biosensor BM1456): increased
ComX biological activity decay ([2]; spent media of mutant strains (degQ::tet, comP::cat; low proteolytic activity) harvested at 36 and 48 h, biosensor BM1456): low
ComX biological activity decay ([2]; spent media of wt PS-216 floating biofilms harvested at 36 and 48 h (MSgg), biosensor BM1456 PsrfAA-yfp fluorescence): high
ComX biological activity decay, change with EDTA ([2]; wt spent medium + EDTA 1 mM added after harvest vs without, 24 h at 37°C, biosensor BM1456): decreases
complementation of spent media proteolytic activity [3]: complemented
decay of the ComX biological activity, change with subtilisin (subtilisin): increases
complementation of PaprE-gfp expression ([4]; degQ::tet mutant of PS-216, MSgg + 20% (v/v) ED367 M9 spent medium with ComX): does not complement
complementation of PaprE-gfp expression ([4]; ΔcomQ degQ::tet double mutant of PS-216, MSgg + 20% (v/v) ED367 M9 spent medium with ComX): does not complement
complementation of PaprE-gfp expression ([4]; ΔcomQ mutant of PS-216, floating biofilm in MSgg + 20% (v/v) M9 spent medium of IPTG-induced E. coli ED367 (heterologous ComX), 37°C, control non-induced spent medium, GFP fluorescence per OD650, three biological replicates): complementation was partial
floating biofilm morphology [5]: restores the ΔcomQ mutant floating biofilm morphology to the wt morphology
